From patent US12139454B2, “Dimethylcyclobutanone compounds, dimethylcyclobutane compounds, and processes for preparing the same” (Shin-Etsu Chemical Co., Ltd., priority 2019, dated 2024)

What was measured:
Planococcus citri [1] = experiment: Field sticky-trap luring test with lures in a navel orange field; assay type: in vivo; details: inferred from lures A and C with high contents versus lure B with low contents
Excerpt: The mixture of cis-(3-isopropenyl-2,2-dimethylcyclobutyl)methyl acetate, trans-(3-isopropenyl-2,2-dimethylcyclobutyl)methyl acetate, and (3-isopropylidene-2,2-dimethylcyclobutyl)methyl acetate obtained as in Example 35 was separated by 10% silver nitrate silica gel column chromatography (hexane:ethyl acetate=100:1). After the separation, they were mixed in a weight ratio of 100:43:4, 100:5:1, and 100:96:96. The mixtures were loaded each on a rubber cap made of isoprene each in an amount of 200 μg of cis-(3-isopropenyl-2,2-dimethylcyclobutyl)methyl acetate to prepare Lures A, B and C shown in the Table 1 below.
Lures A, B and C and the commercially available lure, Pherodis Planococcus citri (Koppert Biological Systems), were attached each to a sticky. Those and a sticky trap without a lure (blank) were placed in a navel orange field in Port Elizabeth, South Africa. Then, the number of lured and killed adult males of Planococcus citri (generic name: Citrus mealybug) in each trap was counted every other week. Each lure was changed every month.

Planococcus citri [2] = details: J. Econ. Entomol. 97, 361 (2004); cited from earlier work

Row | Compound | lure-inhibitory activity (surmised from the lure comparison) (Planococcus citri [1]) | sex pheromone activity / effect on the attraction (Planococcus citri [2])
1 | C=C(C)[C@H]1C[C@H](COC(C)=O)C1(C)C (relative stereo) [trans-(3-isopropenyl-2,2-dimethylcyclobutyl)methyl acetate] | lure-inhibitory activity | –
2 | C=C(C)[C@@H]1C[C@H](COC(C)=O)C1(C)C [(1S,3S)-(3-isopropenyl-2,2-dimethylcyclobutyl) methyl acetate] | – | not a sex pheromone substance, but does not disturb the attraction
3 | CC(=O)OCC1CC(=C(C)C)C1(C)C (stereo not drawn) [(3-isopropylidene-2,2-dimethylcyclobutyl)methyl acetate] | lure-inhibitory activity | –
